Data: PubChem BioAssay AID1902 (Broad Institute, 2009)
Activity calls are given as the source filed them.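 How the source made its calls: active means EC50 no more than a set limit of log units above the highest dose; inactive means the rest.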

What follows are compounds tested against S. pyogenes SKKanGAS, kanamycin survival, BacTiterGlo, 6 h (assay: S. pyogenes SKKanGAS kanamycin growth inhibitors – SKKanGAS strain, luminescence, dose confirmation, streptokinase promoter inhibitor project, dose response (AID 1902);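 further: lower survival reflects blocked streptokinase promoter driving kanamycin resistance gene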).
In the case of `CCC(=O)Nc1ccc(Nc2nc(C)c([N+](=O)[O-])c(Nc3ccc(NC(=O)CC)cc3)n2)cc1`, the EC50 is reported as 1.56 µM. With `Clc1ccc(-c2nnnn2-c2ccc(Cl)c(Cl)c2)cc1Cl` the EC50 was 8.09 µM. `COc1cc([N+](=O)[O-])cc(/C=N/NC(=O)C(C)Nc2cccc(C)c2)c1O` (centres undefined) gave an EC50 of 8.83 µM. Compound `c1csc(-c2csc3nc(CN4CCOCC4)nc(NCc4ccc5c(c4)OCO5)c23)c1` has an EC50 of 4.94 µM. `COc1ccc(C#Cc2ccc3c(=O)c4ccccc4n(C)c3c2)cc1` was tested, and the EC50 was 13.9 µM. `CCn1cc(C(=O)O)c(=O)c2cc(F)c(N3CCN(S(=O)(=O)c4ccc5c(c4)OCCO5)CC3)cc21` showed an EC50 of 2.9 µM. `O=C(CSc1nnc(CNC(=O)c2ccc(F)cc2)o1)NCc1ccccc1Cl` was tested, and the EC50 was > 15 µM (inactive). Compound `N#Cc1c(-c2ccccc2)nc(SCc2cccc(C(F)(F)F)c2)[nH]c1=O` has an EC50 of 1.97 µM. For `O=S(=O)(NCc1nnc2c(C(F)(F)F)cc(Cl)cn12)c1ccccc1`, the EC50 was > 15 µM (inactive). `O=C(/C=C/c1cccc(C(F)(F)F)c1)Nc1cccc(C(F)(F)F)c1` showed an EC50 of 3.3 µM. `C/C(=N\NC(=S)NCc1ccccc1)c1cccc(Br)c1` was tested, and the EC50 was 5.44 µM. With `Cc1ccc(C)c(-c2csc(N)c2C(=O)OC(C)C)c1` the EC50 was 3.11 µM. With `O=c1cc2c(nn1Cc1ccc(Cl)cc1Cl)-c1ccccc1CC2` the EC50 was 5.37 µM. With `Cc1ccccc1OCC(=O)NNC(=S)NC(=O)c1ccco1` the EC50 was 0.338 µM. `CCCc1nc2ccccc2c(C(=O)OCC(=O)Nc2ccc(S(=O)(=O)N3CCOCC3)cc2)c1CC` was tested, and the EC50 was 7.15 µM. `CC(C)(C)c1cc[n+](C2=C([O-])c3ccccc3C(=O)/C2=N\S(=O)(=O)c2ccccc2)cc1` was tested, and the EC50 was 3.2 µM. `Cc1nn(CC(=O)NC2C(=O)N3C(C(=O)O)=C(CSc4nnnn4C)CSC23)cc1Br` (centres undefined) was tested, and the EC50 was under 0.06 µM. Compound `COc1ccc(-c2cc3nc(-c4ccccc4)cc(N4CCCC(O)C4)n3n2)cc1` (centres undefined) has an EC50 of 4.3 µM. With `O=C(NC(c1ccc(Cl)cc1)c1cc(Cl)c2cccnc2c1O)c1cccnc1` (centres undefined) the EC50 was 0.278 µM. `Nc1ccc(-c2cn3cccnc3n2)cc1` was tested, and the EC50 was > 15 µM (inactive). `CC(/C=C/C=C/c1ccccc1)=N/NC(=O)c1ccc2c(c1)OCCO2` was tested, and the EC50 was > 15 µM (inactive). Compound `CCC1(C)Cc2c(sc3nc(SC)[nH]c(=S)c23)CO1` (centres undefined) has an EC50 of 1.87 µM. For `O=C(Nc1ncc(Cc2ccccc2)s1)c1cccs1`, the EC50 was 1.9 µM. For `Cc1ccc(C(c2cc(Cl)c3cccnc3c2O)N2CCN(C)CC2)cc1` (centres undefined), the EC50 was 1.84 µM. `CC(C)=CCOc1ccc([C@@H]2COc3c(ccc4c3C=CC(C)(C)O4)C2)c(O)c1` gave an EC50 of 1.83 µM. For `COc1ccc(CN(C)S(=O)(=O)c2nnc(NC(=O)c3ccccc3Br)s2)cc1`, the EC50 was 3.51 µM. `CCCCOC(=O)c1ccc(NC(=S)N2CCN(c3ncc4c(=O)c(C(=O)O)cn(CC)c4n3)CC2)cc1` was tested, and the EC50 was 2.04 µM. In the case of `O=Nc1c(O)c2ccccc2c2ccccc12`, the EC50 is reported as 2.34 µM. Compound `O=C(Nc1nnc(SCc2c(Cl)cccc2Cl)s1)C1CC(=O)N(c2ccc3c(c2)OCCO3)C1` (centres undefined) has an EC50 of 9.74 µM. `Cc1nn(-c2ccccc2)c(C)c1/C=N/NC(=O)c1cc(-c2ccc(Cl)s2)[nH]n1` was tested, and the EC50 was 5.8 µM. In the case of `O=C(Cc1cccs1)Nc1cccc(-c2nc3cc4ccccc4cc3[nH]2)c1`, the EC50 is reported as 4.25 µM. `O=C(CNC(=O)c1ccc2c(c1)OCO2)N/N=C/c1cc(Br)ccc1O` gave an EC50 of 2.38 µM. For `CCc1ccc(CNc2ccc3c(c2)ncn3C(C)(C)C)cc1`, the EC50 was 3.3 µM. With `CCc1nnc(NC(=O)c2cccc(C(=O)Nc3nnc(CC)s3)n2)s1` the EC50 was 0.961 µM. `CN(Cc1cnc2nc(N)nc(N)c2n1)c1ccc(C(=O)N[C@@H](CCC(=O)O)C(=O)O)cc1` showed an EC50 of 0.61 µM. Work on `FC(F)(F)c1cc(-c2ccco2)nc(NCc2ccc(Cl)cc2)n1` yielded an EC50 of 7.1 µM. Work on `CCOC(=O)c1ccc(NC2=CC(=O)C(=O)c3ccccc32)cc1` yielded an EC50 of 3.48 µM. Compound `CN1C(=O)/C(=C/c2ccc(C(F)(F)F)cc2)Sc2ccc(C(=O)N3CCN(c4ccccn4)CC3)cc21` has an EC50 of 1.57 µM. `COc1ccc(OC)c2[nH]c(C(=O)N/N=C/c3ccccc3O)cc12` showed an EC50 of 1.64 µM. `CCN(CC)c1ccc(C=N/C(C#N)=C(\N)C#N)cc1` was tested, and the EC50 was > 15 µM (inactive). In the case of `CCOP(=O)(Cc1ccc(C(=O)CC)o1)OCC`, the EC50 is reported as > 15 µM (inactive). `Cc1ccc2nc(Nc3nc(-c4ccccc4)cc(=O)[nH]3)nc(C)c2c1` was tested, and the EC50 was 2.64 µM. Compound `CC1CC(C)(C)n2c(O)c(N=NC(N)=S)c3cccc1c32` (centres undefined) has an EC50 of 4.84 µM. With `Cc1ccc(C)c(CSC2=NCCN2S(=O)(=O)c2ccccc2)c1` the EC50 was 15.7 µM. In the case of `Cc1ccc(C(=O)N2CCOCC2)cc1S(=O)(=O)N1CCOCC1`, the EC50 is reported as > 15 µM (inactive). With `CCOc1ccc(C(=O)NC(=S)N(Cc2ccccc2)Cc2ccccc2)cc1` the EC50 was 1.39 µM. In the case of `CCOC(=O)c1c(NS(=O)(=O)c2ccc(Br)cc2)sc2c1CCC2`, the EC50 is reported as 1.6 µM. `O=C(NC(=S)N1CCN(C(c2ccccc2)c2ccccc2)CC1)c1ccc(S(=O)(=O)N2CCOCC2)cc1` showed an EC50 of 2.56 µM. Compound `O=C(Nc1nc2ccccc2n1Cc1ccccc1)c1ccco1` has an EC50 of 2.91 µM. For `CCCCNc1c(-c2ccc(OC)c(SC3CCCCC3)c2)nc2cc(C)ccn12`, the EC50 was 3.89 µM. In the case of `CCCCNc1c(-c2cccc(-c3ccc(OC)cc3)c2)nc2ccc(C)cn12`, the EC50 is reported as 4.05 µM. Compound `S=c1[nH]nc(-c2cc(-c3ccccc3)n[nH]2)n1/N=C/c1ccc(Cl)cc1` has an EC50 of 8.67 µM. For `CC(C)n1nc(C(=O)Nc2nnc(SCc3c(Cl)cccc3Cl)s2)c2ccccc2c1=O`, the EC50 was 1.68 µM. Compound `CCCCN(CC)S(=O)(=O)c1ccc(C(=O)Nc2nnc(-c3ccccc3Cl)o2)cc1` has an EC50 of 0.226 µM.
